One assay addresses T1, 5-LO (Homo sapiens, UniProt P09917).
T1 construct: incubating a test compound with heparinised human blood, prior to challenge with the calcium ionophore A23187; endogenous in cells; host or cells: blood cells in heparinised human whole blood
T1 sequence (P09917 1-674): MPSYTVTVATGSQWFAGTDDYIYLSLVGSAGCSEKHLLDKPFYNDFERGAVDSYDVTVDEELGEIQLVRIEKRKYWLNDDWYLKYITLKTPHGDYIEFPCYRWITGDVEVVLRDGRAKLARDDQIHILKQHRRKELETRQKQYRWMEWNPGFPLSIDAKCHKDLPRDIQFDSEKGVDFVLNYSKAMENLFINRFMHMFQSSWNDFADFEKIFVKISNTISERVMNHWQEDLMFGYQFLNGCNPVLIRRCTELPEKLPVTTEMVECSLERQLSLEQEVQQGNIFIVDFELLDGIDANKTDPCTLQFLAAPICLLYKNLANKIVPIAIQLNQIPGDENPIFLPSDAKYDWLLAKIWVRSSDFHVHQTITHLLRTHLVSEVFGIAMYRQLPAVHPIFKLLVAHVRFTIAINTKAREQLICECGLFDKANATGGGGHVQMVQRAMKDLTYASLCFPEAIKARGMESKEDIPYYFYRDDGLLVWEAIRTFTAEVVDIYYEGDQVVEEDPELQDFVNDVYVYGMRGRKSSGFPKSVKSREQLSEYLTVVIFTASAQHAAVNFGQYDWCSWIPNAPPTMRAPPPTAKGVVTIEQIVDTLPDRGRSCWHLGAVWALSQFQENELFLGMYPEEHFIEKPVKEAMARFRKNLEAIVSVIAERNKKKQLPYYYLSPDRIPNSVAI
The assay is described as follows: Test b): in vitro heparinised human blood challenged with calcium ionophore A23187, radioimmunoassay of LTB4. It counts as cell-based. Conditions: A23187 challenge, read-out: IC₅₀ against LTB₄. As to the method:
(§1) As stated previously, the heterocyclic ethers of the formula I are inhibitors of the enzyme 5-LO. […] This test provides a measure of the intrinsic inhibitory properties against soluble 5-LO in an extracellular environment. • b) An in vitro assay system involving incubating a test compound with heparinised human blood, prior to challenge with the calcium ionophore A23187 and then indirectly measuring the inhibitory effects on 5-LO by assaying the amount of LTB₄ using the specific radioimmunoassay described by Carey and Forder (F. Carey and R.A. Forder, Brit. […] The effects of a test compound on the enzyme cyclooxygenase (which is involved in the alternative metabolic pathway for arachidonic acid and gives rise to prostaglandins, thromboxanes and related metabolites) may be measured at the same time using the specific radioimmunoassay for thromboxane B₂(TxB₂) described by Carey and Forder (see above). […] It permits the selectivity of the inhibitory effect on 5-LO or cyclooxygenase to be assessed. • c) An ex vivo assay system, which is a variation of test b) above, involving administration of a test compound (usually orally as the suspension produced when a solution of the test compound in dimethylsulphoxide is added to carboxymethylcellulose), blood collection, heparinisation, challenge with A23187 and radioimmunoassay of LTB₄ and TxB₂. […]

For a further assay, the target named is T2, cyclooxygenase (Homo sapiens, UniProt P23219).
T2 construct: against 5-LO and also cyclooxygenase in the presence of blood cells and proteins; endogenous in cells; host or cells: blood cells in heparinised human whole blood
T2 sequence (P23219 24-599): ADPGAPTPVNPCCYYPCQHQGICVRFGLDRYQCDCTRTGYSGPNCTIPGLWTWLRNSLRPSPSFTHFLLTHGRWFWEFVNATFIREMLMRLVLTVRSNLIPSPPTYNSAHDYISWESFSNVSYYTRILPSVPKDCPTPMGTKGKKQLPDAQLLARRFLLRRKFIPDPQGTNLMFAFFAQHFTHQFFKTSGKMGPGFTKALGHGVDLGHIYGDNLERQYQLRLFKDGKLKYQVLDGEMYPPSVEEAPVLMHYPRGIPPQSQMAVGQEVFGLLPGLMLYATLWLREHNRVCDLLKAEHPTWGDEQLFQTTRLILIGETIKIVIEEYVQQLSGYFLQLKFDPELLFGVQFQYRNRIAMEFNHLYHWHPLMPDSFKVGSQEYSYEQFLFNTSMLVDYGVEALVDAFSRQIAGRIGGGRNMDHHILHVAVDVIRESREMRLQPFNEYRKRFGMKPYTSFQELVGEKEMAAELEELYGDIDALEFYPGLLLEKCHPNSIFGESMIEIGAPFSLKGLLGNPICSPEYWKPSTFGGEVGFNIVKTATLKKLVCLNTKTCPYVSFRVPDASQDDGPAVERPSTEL
In words: Test b): in vitro heparinised human blood challenged with calcium ionophore A23187, radioimmunoassay of TxB2. Conditions: A23187 challenge, read-out: IC₅₀ against TxB₂. It counts as cell-based. The procedure:
as §1

A value given as a limit tells only on which side of the number the result lay.

In the case of `C=CCOCC(CC)(OCC=C)c1cc(F)cc(OCc2ccc3c(ccc(=O)n3C)c2)c1` (stereo not drawn) [2-allyloxy-2-[5-fluoro-3-(1,2-dihydro-1-methyl-2-oxoquinolin-6-ylmethoxy)phenyl]but-1-yl allyl ether], at 5-LO, the IC50 was determined as 0.1 µM.
In the case of `CCC(COC)(OC)c1cccc(OCC#Cc2ccccn2)c1` (stereo not drawn) [2-methoxy-2-[3-(3-(2-pyridyl)prop-2-yn-1-yloxy)phenyl]but-1-yl methyl ether], the IC50 was above 40 µM on cyclooxygenase and 1 µM at 5-LO.

For the origin of these results see patent EP0385680B1, “Heterocyclic ethers as 5-lipoxygenase inhibitors” (ZENECA LIMITED, priority 1989, dated 1990).
